Residues, ends and D or L forms follow the SMILES beside them.
Assays:
[1] = In vitro stability in simulated intestinal fluid (mouse intestinal wash); type: in vitro ADME; details: 120 μL of 5 mM DMSO stock in 1080 μL, 37°C, 0-1440 min, HPLC-UV 220 nm, n = 3
Experimental: (§1) The samples were analyzed at 40°C on a Phenomenex Lichrosorb RP8 C8 column (4.0 mm × 250 mm, 5 μm), using the gradient elution method on an Agilent HPLC system (Agilent Technologies, Cheadle, UK) equipped with an 1100 series degasser, quaternary pump, autosampler, and column heater, and attached to an Agilent 1200 series PDA detector and a 1250 series fluorescent detector. The flow rate was set at 1.2 mL min^-1, and the injection volume was set at 40 μL, while detection was performed at 220 nm. The mobile phase was a mixture of mobile phase A (0.1% TFA in water) and phase B (0.08% TFA in acetonitrile), and in the first 5 min, the mobile phase was an 8:2 ratio of A:B (v/v) and from 5 to 15 min the percentage of B was raised from 8:2 to 1:9 (v/v). Linear calibration curves were constructed for both peptides between 0.1–100 μg.mL^−1. The retention time for the human Lau–PTEN-PDZ, mouse Lau–PTEN-PDZ, human Myr–PTEN-PDZ, and mouse Myr–PTEN-PDZ was 12.03, 11.60, 13.68, and 13.91, respectively.
The duodenum and ileum were excised from 10 non-fasted CD-1 male mice (7 weeks-old: Charles River Laboratories) that were sacrificed with CO2. Each duodenum and ileum were washed with 6 ml of phosphate buffer (50 mM, pH 6.63), and all the washes were pooled prior to centrifugation at 4000 rpm for 15 min at 4°C (Heraeus Multifuge 3sf) ([7],[15]). The intestinal wash was removed and frozen at −80°C prior to using it in stability studies without further dilution. Peptides stocks (5 mM in DMSO) were prepared and maintained at −20°C prior to performing stability studies. A stock peptide solution (120 μL) was added to the diluted pre-warmed (37°C) intestinal wash (1080 μL) with agitation at 100 rpm (Grant Aqua Waterbath), and samples (80 μL) were taken at 0, 15, 30, 45, 60, 90, 120, 180, 240, 360 and 1440 min, and diluted with ice-cold glacial acetic acid (17.5 M): acetonitrile (5:95 v/v, 80 μL) to quench the enzyme activity. Samples were vortexed and left in −80°C at least overnight to maximize protein precipitation, and after vortexing again for 15 min and centrifuging, the supernatant was analyzed by HPLC as described above.

[2] = In vitro stability in 50% v/v mouse plasma; type: in vitro ADME; details: 37°C, HPLC-UV 220 nm, one phase decay, least square fit, n = 3
Experimental: CD-1 male mice (7 weeks old: Charles River Laboratories) were sacrificed with CO2, and blood was collected in K3E EDTA spray-coated vacutainers and kept on ice prior to centrifugation at 3000 rpm for 15 min at 4°C (Heraeus Multifuge 3sf). Mouse plasma samples were stored at −80°C before use in stability studies. Study was approved by the University of Portsmouth Animal Welfare and Ethical Review Body (UoP AWERB body, 817).
For testing, the plasma was diluted (1:1) in PBS without phenol and pre-warmed to 37°C. Peptides stocks (5 mM in DMSO) were prepared and maintained at −20°C before performing the stability studies. Peptide stock solutions (120 μL) were added to pre-warmed diluted plasma (50% v/v, 1080 μL) and maintained at 37°C with agitation (100 rpm: Grant Aqua Waterbath, Royston, UK). Samples (80 μL) were taken at 0, 3, 6,9, 15, 30, 45, 60, 90, 120, 180, 240, 360 and 1440 min, diluted with ice-cold acetonitrile (80 μL), vortexed and left in −80°C at least overnight to favor maximal protein precipitation. The samples were then vortexed again for 15 min (SciQuip microplate shaker, Shropshire, UK), centrifuged in a Thermo Sci Jouan B4i Centrifuge (Hemel Hampstead, UK) and the supernatant was transferred to an HPLC vial (200 μL).
as §1

[3] = Simulated intestinal fluid = undiluted pooled CD-1 mouse duodenum/ileum wash, phosphate buffer pH 6.63, one phase decay fit

k ([1]; Simulated intestinal fluid = undiluted pooled CD-1 mouse duodenum/ileum wash in 50 mM phosphate buffer pH 6.63, 100 rpm, one phase decay, least square fit): 0.15 h⁻¹ | t1/2 (h) [1, 3]: 4.52 h | t1/2 (min) [1, 3]: 271.02 min | k ([2]; 50% v/v CD-1 mouse plasma (K3 EDTA) in PBS, 120 μL of 5 mM DMSO stock in 1080 μL, 100 rpm, 0-1440 min): 0.80 h⁻¹ | t1/2 (h) ([2]; 50% v/v mouse plasma in PBS): 0.87 h | t1/2 (min) ([2]; 50% v/v mouse plasma in PBS): 52.16 min
Compound: CCCCCCCCCCCCCC(=O)N[C@@H](CCC(N)=O)C(=O)N[C@@H](Cc1c[nH]cn1)C(=O)N[C@@H](CO)C(=O)N[C@@H](CCC(N)=O)C(=O)N[C@H](C(=O)N[C@H](C(=O)N[C@@H](CCCCN)C(=O)N[C@H](C(=O)O)C(C)C)[C@@H](C)O)[C@@H](C)CC [Mouse Myr-PTEN-PDZ] (HELM PEPTIDE1{[CCCCCCCCCCCCCC(=O)[*:2]].Q.H.S.Q.I.T.K.V}$$$$V2.0)
